According to PubChem BioAssay AID1963976 (Molecular Pharmacology Branch, DTP, NCI, 2024):

Test system: 435261-313-R-J1-PDC tumor spheroid viability
Experiment: Anticancer human tumor 435261-313-R-J1-PDC patient-derived colon adenocarcinoma cell line growth inhibition [PI3K]
Conditions: spheroids with HUVEC and MSC; for IC50: curve of first compound; for viability, T/C: stronger effect = lower value; active = viability on the fitted dose curve at most 10% of control; inactive = the rest
Summary of the method: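 We assembled tumor spheroids that included a stromal compartment of HUVEC and MSCs, then exposed them to targeted agents alone and together with PI3K pathway inhibitors. Concentration series descended by half-log from clinically achievable Cmax levels. Viability served as the endpoint.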

[1] = second compound 0.00316 µM, first compound 0.0316 µM
[2] = second compound 0.00316 µM, first compound 0.1 µM
[3] = second compound 0.00316 µM, first compound 0.316 µM
[4] = second compound 0.00316 µM, first compound 1 µM
[5] = second compound 0.00316 µM, first compound 3.16 µM
[6] = second compound 0.00316 µM, first compound 10 µM
[7] = second compound 0.01 µM, first compound 0.0316 µM
[8] = second compound 0.01 µM, first compound 0.1 µM
[9] = second compound 0.01 µM, first compound 0.316 µM
[10] = second compound 0.01 µM, first compound 1 µM
[11] = second compound 0.01 µM, first compound 3.16 µM
[12] = second compound 0.01 µM, first compound 10 µM
[13] = second compound 0.0316 µM, first compound 0.0316 µM
[14] = second compound 0.0316 µM, first compound 0.1 µM
[15] = second compound 0.0316 µM, first compound 0.316 µM
[16] = second compound 0.0316 µM, first compound 1 µM
[17] = second compound 0.0316 µM, first compound 3.16 µM
[18] = second compound 0.0316 µM, first compound 10 µM
[19] = second compound 0.1 µM, first compound 0.0316 µM
[20] = second compound 0.1 µM, first compound 0.1 µM
[21] = second compound 0.1 µM, first compound 0.316 µM
[22] = second compound 0.1 µM, first compound 1 µM
[23] = second compound 0.1 µM, first compound 3.16 µM
[24] = second compound 0.1 µM, first compound 10 µM
[25] = second compound 0.316 µM, first compound 0.0316 µM
[26] = second compound 0.316 µM, first compound 0.1 µM
[27] = second compound 0.316 µM, first compound 0.316 µM
[28] = second compound 0.316 µM, first compound 1 µM
[29] = second compound 0.316 µM, first compound 3.16 µM
[30] = second compound 0.316 µM, first compound 10 µM
[31] = second compound 1 µM, first compound 0.0316 µM
[32] = second compound 1 µM, first compound 0.1 µM
[33] = second compound 1 µM, first compound 0.316 µM
[34] = second compound 1 µM, first compound 1 µM
[35] = second compound 1 µM, first compound 3.16 µM
[36] = second compound 1 µM, first compound 10 µM

CNC(=O)c1ccc(N2C(=S)N(c3ccc(C#N)c(C(F)(F)F)c3)C(=O)C2(C)C)cc1F + COc1c(OCCCN2CCOCC2)ccc2c3n(c(=NC(=O)c4cnc(N)nc4)nc12)CCN3
< 0.0316 µM: IC50 (second compound 0.01 µM) | IC50 (second compound 0.0316 µM) | IC50 (second compound 0.1 µM) | IC50 (second compound 0.316 µM) | IC50 (second compound 1 µM)
8.99 µM: IC50 (second compound 0.00316 µM)
active: viability, T/C [25] 8.96% | viability, T/C [26] 8.69% | viability, T/C [27] 7.55% | viability, T/C [28] 9.53% | viability, T/C [29] 7.67% | viability, T/C [30] 8.88% | viability, T/C [31] 4.12% | viability, T/C [32] 4.26% | viability, T/C [33] 4.87% | viability, T/C [34] 4.38% | viability, T/C [35] 5.02% | viability, T/C [36] 5.37%
inactive: viability, T/C [1] 71.2% | viability, T/C [2] 80.3% | viability, T/C [3] 40.8% | viability, T/C [4] 63.6% | viability, T/C [5] 66.3% | viability, T/C [6] 42.7% | viability, T/C [7] 33.4% | viability, T/C [8] 46.7% | viability, T/C [9] 51.3% | viability, T/C [10] 48.2% | viability, T/C [11] 45.4% | viability, T/C [12] 39.7% | viability, T/C [13] 33.8% | viability, T/C [14] 29.1% | viability, T/C [15] 29.9% | viability, T/C [16] 27.3% | viability, T/C [17] 23% | viability, T/C [18] 22.4% | viability, T/C [19] 16.1% | viability, T/C [20] 13.9% | viability, T/C [21] 14.9% | viability, T/C [22] 15% | viability, T/C [23] 15.4% | viability, T/C [24] 15.3%

C[C@@H](NC(=O)c1ncnc(N)c1Cl)c1ncc(C(=O)Nc2cc(C(F)(F)F)c(Cl)cn2)s1 + CC(Nc1ccc2c(c1)OCCn1cc(N3C(=O)OCC3C(F)F)nc1-2)C(N)=O
4.55 µM: IC50 (second compound 0.1 µM)
> 10 µM: IC50 (second compound 0.00316 µM) | IC50 (second compound 0.01 µM) | IC50 (second compound 0.0316 µM)
< 0.0316 µM: IC50 (second compound 0.316 µM) | IC50 (second compound 1 µM)
inactive: viability, T/C [1] 168% | viability, T/C [2] 171% | viability, T/C [3] 154% | viability, T/C [4] 148% | viability, T/C [5] 158% | viability, T/C [6] 116% | viability, T/C [7] 136% | viability, T/C [8] 152% | viability, T/C [9] 191% | viability, T/C [10] 135% | viability, T/C [11] 140% | viability, T/C [12] 108% | viability, T/C [13] 99.4% | viability, T/C [14] 126% | viability, T/C [15] 155% | viability, T/C [16] 158% | viability, T/C [17] 112% | viability, T/C [18] 85.4% | viability, T/C [19] 74.7% | viability, T/C [20] 72% | viability, T/C [21] 115% | viability, T/C [22] 77.2% | viability, T/C [23] 58.6% | viability, T/C [24] 32.5% | viability, T/C [25] 51.3% | viability, T/C [26] 47.6% | viability, T/C [27] 36.9% | viability, T/C [28] 39.3% | viability, T/C [29] 35.8% | viability, T/C [30] 9.29% | viability, T/C [31] 29.2% | viability, T/C [32] 33.5% | viability, T/C [33] 21.3% | viability, T/C [34] 27% | viability, T/C [35] 23% | viability, T/C [36] 6.01%

C=CC(=O)N1CCN(c2nc(=O)n(-c3c(C)ccnc3C(C)C)c3nc(-c4c(O)cccc4F)c(F)cc23)C(C)C1 (stereo unspecified) + CC(Nc1ncnc2nc[nH]c12)c1cc2cccc(Cl)c2c(=O)n1-c1ccccc1
> 10 µM: IC50 (second compound 0.0316 µM) | IC50 (second compound 0.1 µM) | IC50 (second compound 0.316 µM) | IC50 (second compound 1 µM) | IC50 (second compound 3.16 µM) | IC50 (second compound 10 µM)
inactive: viability, T/C [13] 67.3% | viability, T/C [14] 84.8% | viability, T/C [15] 103% | viability, T/C [16] 117% | viability, T/C [17] 116% | viability, T/C [18] 103% | viability, T/C [19] 78.4% | viability, T/C [20] 79.9% | viability, T/C [21] 103% | viability, T/C [22] 84.3% | viability, T/C [23] 109% | viability, T/C [24] 103% | viability, T/C [25] 92% | viability, T/C [26] 95% | viability, T/C [27] 85.4% | viability, T/C [28] 94.1% | viability, T/C [29] 122% | viability, T/C [30] 108% | viability, T/C [31] 76.3% | viability, T/C [32] 77% | viability, T/C [33] 102% | viability, T/C [34] 91.9% | viability, T/C [35] 130% | viability, T/C [36] 109% | viability, T/C (second compound 3.16 µM, first compound 0.0316 µM) 53.7% | viability, T/C (second compound 3.16 µM, first compound 0.1 µM) 68.8% | viability, T/C (second compound 3.16 µM, first compound 0.316 µM) 89.2% | viability, T/C (second compound 3.16 µM, first compound 1 µM) 106% | viability, T/C (second compound 3.16 µM, first compound 3.16 µM) 87.9% | viability, T/C (second compound 3.16 µM, first compound 10 µM) 79.5% | viability, T/C (second compound 10 µM, first compound 0.0316 µM) 49.3% | viability, T/C (second compound 10 µM, first compound 0.1 µM) 49.6% | viability, T/C (second compound 10 µM, first compound 0.316 µM) 54.6% | viability, T/C (second compound 10 µM, first compound 1 µM) 55.1% | viability, T/C (second compound 10 µM, first compound 3.16 µM) 74.9% | viability, T/C (second compound 10 µM, first compound 10 µM) 66.4%
